Laboratory results published in patent publication US8623896B2, “Insecticidal compounds” (Syngenta Crop Protection, LLC, priority 2007, dated 2014).

What was measured:
Format in all cases: in vivo
Conditions in all cases: same protocol, 200 ppm
[1] = system: Spodoptera littoralis (Egyptian Cotton Leafworm); assay: Spodoptera littoralis cotton leaf disc spray test
Source text: Cotton leaf discs were placed on agar in a 24-well microtiter plate and sprayed with test solutions at an application rate of 200 ppm. After drying, the leaf discs were infested with 5 L1 larvae. The samples were checked for mortality, feeding behavior, and growth regulation 3 days after treatment (DAT).

[2] = system: Heliothis virescens (Tobacco Budworm); assay: Heliothis virescens egg test on artificial diet
Procedure: Eggs (0-24 h old) were placed in 24-well microtiter plate on artificial diet and treated with test solutions at an application rate of 200 ppm (concentration in well 18 ppm) by pipetting. After an incubation period of 4 days, samples were checked for egg mortality, larval mortality, and growth regulation.

[3] = system: Plutella xylostella (Diamond Back Moth); assay: Plutella xylostella larvae test on artificial diet
Procedure: 24-well microtiter plate (MTP) with artificial diet was treated with test solutions at an application rate of 200 ppm (concentration in well 18 ppm) by pipetting. After drying, the MTP's were infested with L2 larvae (7-12 per well). After an incubation period of 6 days, samples were checked for larval mortality and growth regulation.

[4] = system: Diabrotica balteata (Corn Root Worm); assay: Diabrotica balteata larvae test on artificial diet
Procedure: A 24-well microtiter plate (MTP) with artificial diet was treated with test solutions at an application rate of 200 ppm (concentration in well 18 ppm) by pipetting. After drying, the MTP's were infested with L2 larvae (6-10 per well). After an incubation period of 5 days, samples were checked for larval mortality and growth regulation.

[5] = system: Thrips tabaci (Onion Trips); assay: Thrips tabaci sunflower leaf disc spray test
[6] = system: Tetranychus urticae (Two-Spotted Spider Mite); assay: Tetranychus urticae bean leaf disc spray test
Source text: Bean leaf discs on agar in 24-well microtiter plates were sprayed with test solutions at an application rate of 200 ppm. After drying, the leaf discs are infested with mite populations of mixed ages. 8 days later, discs are checked for egg mortality, larval mortality, and adult mortality.

Measured: effect on mortality, feeding behavior, or growth regulation

Cc1cc(C2=NOC(c3cc(Cl)cc(Cl)c3)(C(F)(F)F)C2)ccc1C(=O)NCC1CCN1Cc1ccccc1 (stereo not drawn) [B2]
little or no effect: all assays above

CC1(NC(=O)c2ccc(C3=NOC(c4cc(Cl)cc(Cl)c4)(C(F)(F)F)C3)cc2C#N)CSC1 (stereo not drawn) [A18]
little or no effect: all assays above

N#Cc1cc(C2=NOC(c3cc(Cl)cc(Cl)c3)(C(F)(F)F)C2)ccc1C(=O)NC1CSC1 (stereo not drawn) [A19]
little or no effect: all assays above
